Test results as given in patent US20230277698A1, “SILICON-CONTAINING LIGAND COMPOUNDS” (Technische Universität München, priority 2020, published 2023).

Columns and labels:
[1] = biological target: human serum albumin (HSA) (Homo sapiens, UniProt P02768); assay: HSA binding by radio inversed affinity chromatography (RIAC); assay type: in vitro ADME; settings: 177Lu-labelled; Superdex 75 Increase 10/300 GL, 700 μM HSA in PBS, 0.8 mL/min
Procedure: A gel filtration column Superdex 75 Increase 10/300 GL (GE Healthcare, Uppsala, Sweden) was beforehand calibrated following the producer's recommendations with a commercially available gel filtration calibration kit (GE Healthcare, Buckinghamshire, UK) comprising conalbumin (MW: 75 kDa), ovalbumin (44 kDa), carbonic anhydrase (29 kDa), ribonuclease A (13.7 kDa) and aprotinin (6.5 kDa) as reference proteins of known molecular weight. RIAC experiments were conducted using a constant flow rate of 0.8 mL/min at rt. A solution of HSA in PBS at physiological concentration (700 μM) was used as the mobile phase. PSMA ligands were labelled as described with molar activities of 10-20 GBq/μmol. Probes of 1.0 MBq of the radioligand were injected directly from the labelling solution. HSA binding was expressed as an apparent molecular weight MW calculated from the retention time of the radioligand using the determined calibration curve.
The following table summarizes the underlying data. MW: molecular weight. tR: experimentally determined retention time. V: elution volume. Kav: partition coefficient.
RIAC, in an inversed way, comprises ligand samples (radiolabeled PSMA ligands) and a protein (HSA) containing mobile phase. Ligand-specific retention is caused by interaction of the ligand probe and HSA in the mobile phase. Unbound species, due to a molecular weight beneath the molecular cut off of the gel filtration column, are maximally retained while bound species are eluted in accordance to the higher molecular weight of the ligand-HSA-complex (MWHSA: 66.47 kDa). Experiments show a single radiopeak indicating a dynamic process of formation and dissociation of the ligand-HSA-complex throughout the passage through the column bed. Accordingly, the absolute retention time is the result of the ligand's mean time of abidance at HSA which is directly defined by the ligand's binding kinetics and affinity toward HSA. For evaluation, experimentally determined retention times tR are first converted into elution volumes Ve by multiplying with the flow rate and thereafter converted into partition coefficients Kav following the equation
where V0 is the column void volume (8.027 mL) and Vc is the geometric column volume (24 mL). Using the equation given by the trend line plot of the column calibration
the apparent molecular weight MW is calculated as
FIG. 7 and the table below show the results HSA-binding of lutetium-complexed PSMA-ligands and reference compounds determined by RIAC on a Superdex 75 Increase 10/300 GL column 700 μM HSA in PBS as solvent using a constant flow rate of 0.8 mL/min (plotted data, extracted from FIG. 8).
FIG. 8 illustrates the determination of HSA binding via radio inverse affinity chromatography (RIAC). Correlation of apparent molecular weight (MW) in Dalton (Da) and retention time of ^177Lu-labeled samples, determined on a Superdex 75 Increase 10/300 GL with 700 μM HSA in PBS as solvent using a constant flow rate of 0.8 mL/min.

[2] = tested on: LNCaP cells; assay: Internalization studies on LNCaP cells; assay type: cell-based; settings: 177Lu-labelled, c=1.0 nM, 1 hour, 37 °C; % of reference ligand ([125I]I-BA)KuE (c=0.2 nM); corrected for non-specific binding (PMPA); mean±SD, n=3-6
Procedure: PSMA-positive LNCAP cells (300265; Cell Lines Service, Eppelheim, Germany) were cultivated in Dulbecco modified Eagle medium/Nutrition Mixture F-12 with Glutamax (1:1) (DMEM-F12, Biochrom, Berlin, Germany) supplemented with fetal bovine serum (10%, FBS Zellkultur, Berlin, Germany) and kept at 37° C. in a humidified CO2 atmosphere (5%). A mixture of trypsin and EDTA (0.05%, 0.02%) in PBS (Biochrom) was used in order to harvest cells. Cells were counted with a Neubauer hemocytometer (Paul Marienfeld, Lauda-Königshofen, Germany).
For internalization studies, LNCaP cells were harvested 24±2 hours before the experiment and seeded in poly-L-lysine coated 24-well plates (1.25×10^5 cells in 1 mL/well, Greiner Bio-One, Kremsmünster, Austria). After removal of the culture medium, the cells were washed once with 500 μL DMEM-F12 (5% BSA) and left to equilibrate for at least 15 min at 37° C. in 200 μL DMEM-F12 (5% BSA). Each well was treated with either 25 μL of either DMEM-F12 (5% BSA, control) or 25 μL of a 100 μM PMPA (2-(Phosphonomethyl)-pentandioic acid, Tocris Bioscience, Bristol, UK) solution in PBS, for blockade. Next, 25 μL of the radioactive-labelled PSMA inhibitor (10.0 nM in PBS) was added and the cells were incubated at 37° C. for 60 min. The experiment was terminated by placing the 24-well plate on ice for 3 min and consecutive removal of the medium. Each well was carefully washed with 250 μL of ice-cold HBSS. Both fractions from the first steps, representing the amount of free radioligand, were combined. Removal of surface bound activity was accomplished by incubation of the cells with 250 μL of ice-cold PMPA (10 μM in PBS) solution for 5 min and rinsed again with another 250 μL of ice-cold PBS. The internalized activity was determined by incubation of the cells in 250 μL 1 M aqueous NaOH for at least 10 min. The obtained fractions were combined with those of the subsequent wash step with 250 μL 1 M aqueous NaOH. Each experiment (control and blockade) was performed in triplicate. Free, surface bound and internalized activity was quantified in a γ-counter. All internalization studies were accompanied by external reference studies, using ([^125I]l-BA)KuE (c=0.2 nM), which were performed analogously. Data were corrected for non-specific binding and normalized to the specific-internalization observed for the radioiodinated reference compound.
Data is corrected for non-specific binding (10 μmol PMPA) and expressed as mean±SD (n=3-6): […]

[3] = tested on: LNCaP tumor-bearing CB17-SCID mice; assay: Biodistribution studies 24 h p.i.; assay type: in vivo; settings: 177Lu-labelled, mean±SD, n=4-5
Procedure: All animal experiments were conducted in accordance with general animal welfare regulations in Germany (German animal protection act, as amended on 18 May 2018, Art. 141 G v. 29.3.2017|626, approval no. 55.2-1-54-2532-71-13) and the institutional guidelines for the care and use of animals. To establish tumor xenografts, LNCaP cells (approx. 10^7 cells) were suspended in 200 μL of a 1:1 mixture (v/v) of DMEM F-12 and Matrigel (BD Biosciences, Germany), and inoculated subcutaneously onto the right shoulder of 6-8 weeks old CB17-SCID mice (Charles River, Sulzfeld, Germany). Mice were used for experiments when tumors had grown to a diameter of 5-10 mm (3-6 weeks after inoculation).
Approximately 5-10 MBq (0.1-0.2 nmol) of the radioactive-labelled PSMA inhibitors were injected into the tail vein of LNCaP tumor-bearing male CB-17 SCID mice and sacrificed after 24 h post injection. Selected organs were removed, weighted and measured in a γ-counter.
FIG. 10 and the following table show the biodistribution data 24 h p.i. of ^177Lu-labeled compounds in LNCaP tumor-bearing CB17-SCID mice. Data are expressed as mean±SD (n=4-5).

Sequence of human serum albumin (HSA) (P02768 25-609): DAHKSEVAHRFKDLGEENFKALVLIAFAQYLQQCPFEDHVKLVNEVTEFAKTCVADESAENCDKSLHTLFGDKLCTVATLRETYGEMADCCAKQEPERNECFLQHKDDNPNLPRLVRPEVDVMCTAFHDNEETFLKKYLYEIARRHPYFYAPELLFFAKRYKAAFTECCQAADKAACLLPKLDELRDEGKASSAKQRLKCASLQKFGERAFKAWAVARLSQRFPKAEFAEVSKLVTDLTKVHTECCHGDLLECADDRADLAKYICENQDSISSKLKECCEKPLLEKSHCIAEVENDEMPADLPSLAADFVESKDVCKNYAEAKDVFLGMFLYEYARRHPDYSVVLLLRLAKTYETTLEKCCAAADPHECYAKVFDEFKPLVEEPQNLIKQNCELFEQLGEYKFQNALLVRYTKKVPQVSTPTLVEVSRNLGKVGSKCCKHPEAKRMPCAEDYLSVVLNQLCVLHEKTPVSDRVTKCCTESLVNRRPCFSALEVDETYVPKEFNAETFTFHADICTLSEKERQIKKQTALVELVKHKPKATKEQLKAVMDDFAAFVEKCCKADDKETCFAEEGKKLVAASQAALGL

O=C(O)CC[C@H](NC(=O)N[C@@H](CCCCNC(=O)CCCCCCC(=O)NCCCC[C@@H](NC(=O)[C@@H](Cc1ccccc1)NC(=O)[C@@H](Cc1ccc(O)c(I)c1)NC(=O)CCC(C(=O)O)N1CCN(CC(=O)O)CCN(CC(=O)O)CCN(CC(=O)O)CC1)C(=O)O)C(=O)O)C(=O)O (stereo partly drawn) [PSMA I&T, reference compound]
HSA-binding RIAC (apparent molecular weight) [1]: 5.3 kDa | Internalization (% IBA) [2]: 76 ± 2 % IBA | biodistribution: tumor ([3]; LNCaP xenograft): 4.1 ± 1.1 % ID/g | biodistribution: blood ([3]; i.v. tail vein): 0.012 ± 0.01 % ID/g | biodistribution: adrenals [3]: 1.06 ± 0.24 % ID/g | biodistribution: bone [3]: 0.01 ± 0.01 % ID/g | biodistribution: heart [3]: 0.05 ± 0.03 % ID/g | biodistribution: intestine [3]: 0.12 ± 0.06 % ID/g | biodistribution: kidneys [3]: 34.7 ± 17.2 % ID/g | biodistribution: liver [3]: 0.05 ± 0.01 % ID/g | biodistribution: lung [3]: 0.16 ± 0.03 % ID/g | biodistribution: muscle [3]: 0.01 ± 0.01 % ID/g | biodistribution: pancreas [3]: 0.05 ± 0.02 % ID/g | biodistribution: spleen [3]: 1.94 ± 1.01 % ID/g | biodistribution: stomach [3]: 0.05 ± 0.02 % ID/g
